Experiments:
[1] = tested on: SW480 cells; assay: Detection of paraptotic vesicles (phase contrast microscopy); type: cell-based, human; conditions: 24 h
Experimental: SW480 and SW480/Coti cells were seeded at a density of 2 × 10^4 per well in 24-well plates and left to recover for 24 h. This was followed by drug treatment at the indicated concentration for 24 h. Images were captured with phase contrast using a Nikon eclipse Ti-e fluorescence microscope and a DS Fi1c camera. Cells containing vesicles were counted in ImageJ and plotted in GraphPad Prism as the percentage of all cells.

[2] = tested on: GLC-4 cells; design: method as in PMID 33190481; conditions: 72 h, MTT; cited from earlier work
[3] = Cyclic voltammetry of iron(III)–ligand (1:2) systems; type: physicochemical; conditions: cL = 1 mM, pH 7.40, 25 °C, 90% (v/v) DMSO/H2O, 0.01 V/s scan rate
Experimental: Cyclic voltammograms for the Fe(III) and Cu(II) complexes were recorded in 90% (v/v) DMSO/water solution containing 1 mM ligand and 0.5 mM FeCl3 or 1 mM CuCl2 using a conventional three-electrode system under nitrogen atmosphere and a PC-Controlled Electrochemical Measurement System (EF 451). The ionic strength was 0.10 M, adjusted by TBAN. Samples were purged for 15 min with Ar before recording the cyclic voltammograms. Platinum electrodes were used as the working and auxiliary electrodes, and Ag/AgCl (3 M KCl) was applied as the reference electrode. The electrochemical potentials were converted into the normal hydrogen electrode (NHE) scale by adding 0.222 V. The instrument was calibrated with an aqueous solution of K3[Fe(CN)6] (E1/2 = +0.386 V vs. NHE). Redox potentials were obtained at different scan rates (5–25 mV/s) in the range of −0.8 to +0.1 V. The dependence of the peak current values of the square root of the scan rates is shown in Figure S5 for the iron and copper complexes of COTI-NMeCy.

[4] = tested on: SW480/Coti cells; design: method as in PMID 33190481; conditions: 72 h, MTT; cited from earlier work

E’ vs. NHE, iron(III)–ligand (1:2) systems [3] | Compound | cells presenting paraptotic features ([1]; 0.1 µM) | cells presenting paraptotic features ([1]; 1 µM) | IC50 [2] | IC50 [4]
– | CN(C)C(=S)NN=C1CCCc2cccnc21 (mixture of isomers) [COTI-NMe2, 2-(6,7-Dihydroquinolin-8(5H)-ylidene)-N^4,N^4-dimethylhydrazine-1-carbothioamide] | 100% | 100% | – | –
+0.11 V | S=C(N/N=C1\CCCc2cccnc21)N1CCN(c2ccccn2)CC1 [COTI-2, 4-(pyridine-2-yl)-N-([(8E)-5,6,7,8-tetrahydroquinolin-8-ylidene]amino)piperazine-1-carbothioamide] | – | – | 0.03 ± 0.01 µM | 9.51 ± 3.11 µM
